Measurements: article PMC9413514, “Accessing Lipophilicity and Biomimetic Chromatography Profile of Biologically Active Ingredients of Botanicals Used in the Treatment of Inflammatory Bowel Disease” (Pharmaceuticals, 2022)

What was measured:
[1] = Miniaturized shake-flask method (n-octanol/PBS pH 7.4) with HPLC analysis; type: physicochemical; conditions: for logD at 1 h: n-octanol/PBS 20 mM pH 7.4, 25 °C, spread is RSD in %, read-out: log D7.4 ± RSD (%) (n = 3); for Δ log D7.4 (lower than curcumin): compared to curcumin
Method: Stock solution of biologically active ingredients of botanicals used in IBD treatment were prepared using dimethylsulfoxide in concentration of 2 mg/mL. Working solutions were prepared daily by dilution of the stock solutions with PBS (20 mM, pH 7.4) pre-saturated with n-octanol. Before the injection into the HPLC system all solutions were sonicated for 15 min at room temperature in Elmasonic XtraTT (Elma Schmidbauer, Singen, Germany) and filtered through 0.2 μm polyethersulfone filters (Obrnuta faza, Pazin, Croatia).
The pre-saturated solutions of n-octanol and PBS (20 mM, pH 7.4) were used for determination of logarithm of distribution coefficient (log D7.4). The n-octanol and aqueous phase (mixture 1:1, v/v) were mutually saturated for 24 h in an orbital shaker-incubator ES-20/60 (Biosan, Riga, Latvia) at 100 oscillations per min at 25.0 ± 0.1 °C. The prepared mixture was left resting for at least 12 h in the thermostat at 25.0 ± 0.1 °C to ensure complete separation of the two phases. Until analysis, separated saturated solutions were kept in refrigerator at 4 °C.
Shake-flask procedure was conducted in amber 2 mL HPLC vials. 300 μL of the working solution was added to 1500 μL of n-octanol pre-saturated with PBS. To prevent material loss due to volatilisation, the two-phase system nearly filled the entire volume of the test vessels. All n-octanol–buffer mixtures were first vortexed for 1 min and then shaken for 1 h (150 oscillations per min) at room temperature (25.0 ± 0.1 °C) to reach equilibrium and phase distribution. Afterward, the samples were centrifuged using a Z 326 K tabletop centrifuge (HERMLE Labortechnik, Wehingen, Germany) for 30 min at 4000× g and 25 °C to ensure that possible emulsions were removed.
After equilibration and phase separation, the aqueous phase of all samples was analysed on an Agilent HPLC 1100 (Agilent Technologies, Waldbronn, Germany) with diode array detection. Analysis was conducted with a Zorbax SB C18 column (length 150 mm, i.d. 4.6 mm, particle size 5 μm) by Agilent Technologies. 10 min chromatographic runs were performed at 25.0 ± 0.1 °C in isocratic mode using a methanol/water mixture (60/40, v/v) with addition of 0.1% of formic acid as mobile phase modifier at a flow rate of 1.0 mL/min. The mobile phase was filtered through a membrane filter, no. 66, diameter 47 mm, pore size 0.45 µm (Supelco, Bellefonte, PA, USA). The vials were placed in the rack on the autosampler at 25 °C. The injection volume was 10 µL, with a needle offset of 0.5 mm. To avoid any carryover of the analyte-containing n-octanol phase, the outside of the syringe was subsequently washed in methanol before injection. The absorbance of the analytes during a chromatographic run was collected in the spectral range 200–400 nm, and the detection wavelength for each analyte was the one providing the maximum peak height.

[2] = C18-TLC assay (hydrophobicity); type: physicochemical; conditions: for RM0 (TLC hydrophobicity index, intercept of linear equation): RP-18 TLC, PBS pH 7.4/methanol, extrapolated to zero organic modifier
Excerpt: In TLC measurements RF value depends on the chemical structure of analyte and its interaction with stationary and mobile phase. […] As it was expected, with increase in the percentage of organic modifier in the mobile phase the increase in RF values can be seen with accompanied decrease in RM values expressed as RM = log(1/RF - 1). Measured RF values were in the range from 0.1 to 0.7 obtained in a wide range of mobile phase organic modifier concentrations. […] Increasing concentration of the organic modifier in the mobile phase caused a slower decrease in the RM values for less hydrophobic analytes than for more hydrophobic ones. […] Increase in the hydrophobicity within curcuminoids and andrographolides is related to increase in lipophilicity determined by shake-flask method (Table 3). Stock solutions of analytes and calibration standards were prepared by dissolving 10 mg of each solute in 10 mL of methanol and kept at 4 °C. Working solutions were freshly prepared at the beginning of each day by dilution of the stock solutions to 100 μg/mL with methanol for TLC measurements or mobile phase for HPLC measurements. Before use, the samples were sonicated (Elmasonic […]) for 10 min at 25 °C and all working solutions were filtered through 0.2 μm polyethersulfone filters (Obrnuta faza). To protect analytes from photodegradation, the amber glass HPLC vials were used. Analyses were carried out using a commercially available 10 cm x 20 cm RP-18 TLC plates with fluorescent indicator (Merck KGaA). 5 μL of each working solution ([…]) was applied to the plates as 5 mm bends, 10 mm from the lower edge and 15 mm from sides of plates. The mobile phases were prepared by mixing the respective amounts of PBS (20 mM, pH 7.4) and methanol from 50% to 80% of organic solvent in 5% increment. The vertical flat-bottom chamber ([…], Switzerland) with a stainless-steel lid was saturated with mobile phase for 30 min. The plates were developed to a distance of 9 cm at room temperature, dried in the open air for 5 min and visualized under λ = 254 nm UV light (UV Cabinet with Dual Wavelength UV lamp by Camag).

[3] = molecular target: T1, human serum albumin (HSA) (Homo sapiens, UniProt P02768); test: HSA-HPAC assay (plasma protein binding); type: in vitro ADME; conditions: Chiralpak-HSA, pH 7.4, 25 °C; spread is RSD in %
T1 construct: purchased ChromTech (Cedex, France) Chiralpak-HSA
Excerpt: (§1) The gradient retention times obtained by HSA-HPAC and AGP-HPAC assays were standardized using a calibration set of compounds with known percentage of plasma protein binding data and procedure described in our previously published study. […] This verification assured that the protein affinity indices obtained by HPAC assays depict not only unspecific generally lipophilicity-driven interactions, but also highly specific recognition forces responsible of enantioselectivity.
(§2) Stock solutions of analytes and calibration standards were prepared by dissolving 10 mg of each solute in 10 mL of methanol and kept at 4 °C. Working solutions were freshly prepared at the beginning of each day by dilution of the stock solutions to 100 μg/mL with methanol for TLC measurements or mobile phase for HPLC measurements. Before use, the samples were sonicated (Elmasonic XtraTT, Elma Schmidbauer) for 10 min at 25 °C and all working solutions were filtered through 0.2 µm polyethersulfone filters (Obrnuta faza). To protect analytes from photodegradation, the amber glass HPLC vials were used.
(§3) The binding of biologically active compounds to the plasma proteins was investigated using affinity chromatographic columns by ChromTech (Cedex, France) containing immobilized human serum albumin (HSA) (Chiralpak-HSA, length 50 mm, i.d. 4.6 mm, particle size 5 µm) and α1-acid glycoprotein (AGP) (Chiralpak-AGP, length 50 mm, i.d. 4.6 mm, particle size 5 µm) and Agilent HPLC 1100 instrument. The 20 mM potassium phosphate buffer with the pH adjusted to 7.4 and iso-propanol were used as mobile phase components A and B. Retention data were collected at 25.0 ± 0.1 °C using gradient program as follows: 0 min/0% B, 6 min/30% B, 15 min/30% B and 20 min/0% B. Injection volume was set at 10 µL and the measurements were carried out at 25.0 ± 0.1 °C with flow rate of 1.5 mL/min. The absorbance of the analytes during a chromatographic run was collected in the spectral range 200–400 nm, and the detection wavelength for each analyte was the one providing the maximum peak height.

[4] = system: α1-acid glycoprotein (AGP); test: AGP-HPAC assay (plasma protein binding); type: in vitro ADME; conditions: Chiralpak-AGP, pH 7.4, 25 °C; spread is RSD in %
Excerpt: as §1, §2, §3

T1 sequence (P02768 25-609): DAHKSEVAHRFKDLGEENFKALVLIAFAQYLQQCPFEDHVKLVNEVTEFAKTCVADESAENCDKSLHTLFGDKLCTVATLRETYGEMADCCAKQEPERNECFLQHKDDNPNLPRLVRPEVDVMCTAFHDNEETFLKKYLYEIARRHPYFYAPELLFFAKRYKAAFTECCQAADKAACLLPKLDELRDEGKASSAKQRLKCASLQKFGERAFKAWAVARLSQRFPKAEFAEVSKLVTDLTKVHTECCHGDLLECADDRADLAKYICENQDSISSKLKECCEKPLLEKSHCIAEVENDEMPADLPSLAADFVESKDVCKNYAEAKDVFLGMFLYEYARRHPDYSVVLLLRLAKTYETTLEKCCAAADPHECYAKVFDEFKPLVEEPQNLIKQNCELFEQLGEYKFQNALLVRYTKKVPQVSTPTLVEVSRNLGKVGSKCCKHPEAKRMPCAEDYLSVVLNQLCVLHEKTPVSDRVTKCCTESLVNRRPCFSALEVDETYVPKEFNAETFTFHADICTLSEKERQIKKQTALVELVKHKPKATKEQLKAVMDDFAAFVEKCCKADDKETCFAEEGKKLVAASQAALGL

## C=C1CC[C@@H]2[C@](C)(CO)[C@H](O)CC[C@@]2(C)[C@@H]1C/C=C1/C(=O)OC[C@H]1O [Andrographolide, andrographolide]
[1]
  logD at 1 h: 1.32
[2]
  RM0 (TLC hydrophobicity index, intercept of linear equation): y = −0.0302 x + 2.0908
[3]
  HSA Binding ± RSD (%) (n = 3): 80.07 ± 0.74%
[4]
  AGP Binding ± RSD (%) (n = 3): 37.13 ± 1.11%

## O=C(C=Cc1ccc(O)cc1)CC(=O)C=Cc1ccc(O)cc1 [Bisdemetoxycurcumin, bisdemetoxycurcumin]
[1]
  Δ log D7.4 (lower than curcumin): 0.22 units
  logD at 1 h: 1.72
[2]
  RM0 (TLC hydrophobicity index, intercept of linear equation): y = −0.0503 x + 4.1751
[3]
  HSA Binding ± RSD (%) (n = 3): 98.37 ± 0.10%
[4]
  AGP Binding ± RSD (%) (n = 3): 83.14 ± 1.15%

## COc1cc(/C=C/C(=O)CC(=O)/C=C/c2ccc(O)cc2)ccc1O [Demetoxycurcumin, demetoxycurcumin]
[1]
  Δ log D7.4 (lower than curcumin): 0.42 units
  logD at 1 h: 1.52
[2]
  RM0 (TLC hydrophobicity index, intercept of linear equation): y = −0.0504 x + 4.1781
[3]
  HSA Binding ± RSD (%) (n = 3): 97.97 ± 0.35%
[4]
  AGP Binding ± RSD (%) (n = 3): 82.92 ± 1.15%

## C=C1CC[C@@H]2[C@](C)(CO[C@@H]3O[C@H](CO)[C@@H](O)[C@H](O)[C@H]3O)CCC[C@@]2(C)[C@@H]1CCC1=CCOC1=O [Neoandrographolide, neoandrographolide]
[1]; compared to andrographolide
  Δ log D7.4 (increase compared to andrographolide): 0.19 units
[1]
  logD at 1 h: 1.51
[2]
  RM0 (TLC hydrophobicity index, intercept of linear equation): y = −0.0334 x + 2.1672
[2]; compared to andrographolide
  difference in RM0 values versus andrographolide: 0.08 units
[3]
  HSA Binding ± RSD (%) (n = 3): 87.71 ± 0.41%
[4]
  AGP Binding ± RSD (%) (n = 3): 64.95 ± 0.41%

## O=C(/C=C/C=C/c1ccc2c(c1)OCO2)N1CCCCC1 [Piperine, piperine]
[1]
  logD at 1 h: 1.67
[2]
  RM0 (TLC hydrophobicity index, intercept of linear equation): y = −0.0526 x + 4.4044
[3]
  HSA Binding ± RSD (%) (n = 3): 95.48 ± 0.41%
[4]
  AGP Binding ± RSD (%) (n = 3): 71.98 ± 1.33%
